Source: patent US12036291B2, “Probes for imaging huntingtin protein” (CHDI Foundation, Inc., priority 2014, dated 2024)

Target: T1, Q46 protein aggregates (Homo sapiens, UniProt P42858)
T1 construct: fused on or other part: GST at the N-terminus, cut off with thrombin before aggregation
T1 sequence (P42858 with tags, fused parts or gaps with the stated changes, form open): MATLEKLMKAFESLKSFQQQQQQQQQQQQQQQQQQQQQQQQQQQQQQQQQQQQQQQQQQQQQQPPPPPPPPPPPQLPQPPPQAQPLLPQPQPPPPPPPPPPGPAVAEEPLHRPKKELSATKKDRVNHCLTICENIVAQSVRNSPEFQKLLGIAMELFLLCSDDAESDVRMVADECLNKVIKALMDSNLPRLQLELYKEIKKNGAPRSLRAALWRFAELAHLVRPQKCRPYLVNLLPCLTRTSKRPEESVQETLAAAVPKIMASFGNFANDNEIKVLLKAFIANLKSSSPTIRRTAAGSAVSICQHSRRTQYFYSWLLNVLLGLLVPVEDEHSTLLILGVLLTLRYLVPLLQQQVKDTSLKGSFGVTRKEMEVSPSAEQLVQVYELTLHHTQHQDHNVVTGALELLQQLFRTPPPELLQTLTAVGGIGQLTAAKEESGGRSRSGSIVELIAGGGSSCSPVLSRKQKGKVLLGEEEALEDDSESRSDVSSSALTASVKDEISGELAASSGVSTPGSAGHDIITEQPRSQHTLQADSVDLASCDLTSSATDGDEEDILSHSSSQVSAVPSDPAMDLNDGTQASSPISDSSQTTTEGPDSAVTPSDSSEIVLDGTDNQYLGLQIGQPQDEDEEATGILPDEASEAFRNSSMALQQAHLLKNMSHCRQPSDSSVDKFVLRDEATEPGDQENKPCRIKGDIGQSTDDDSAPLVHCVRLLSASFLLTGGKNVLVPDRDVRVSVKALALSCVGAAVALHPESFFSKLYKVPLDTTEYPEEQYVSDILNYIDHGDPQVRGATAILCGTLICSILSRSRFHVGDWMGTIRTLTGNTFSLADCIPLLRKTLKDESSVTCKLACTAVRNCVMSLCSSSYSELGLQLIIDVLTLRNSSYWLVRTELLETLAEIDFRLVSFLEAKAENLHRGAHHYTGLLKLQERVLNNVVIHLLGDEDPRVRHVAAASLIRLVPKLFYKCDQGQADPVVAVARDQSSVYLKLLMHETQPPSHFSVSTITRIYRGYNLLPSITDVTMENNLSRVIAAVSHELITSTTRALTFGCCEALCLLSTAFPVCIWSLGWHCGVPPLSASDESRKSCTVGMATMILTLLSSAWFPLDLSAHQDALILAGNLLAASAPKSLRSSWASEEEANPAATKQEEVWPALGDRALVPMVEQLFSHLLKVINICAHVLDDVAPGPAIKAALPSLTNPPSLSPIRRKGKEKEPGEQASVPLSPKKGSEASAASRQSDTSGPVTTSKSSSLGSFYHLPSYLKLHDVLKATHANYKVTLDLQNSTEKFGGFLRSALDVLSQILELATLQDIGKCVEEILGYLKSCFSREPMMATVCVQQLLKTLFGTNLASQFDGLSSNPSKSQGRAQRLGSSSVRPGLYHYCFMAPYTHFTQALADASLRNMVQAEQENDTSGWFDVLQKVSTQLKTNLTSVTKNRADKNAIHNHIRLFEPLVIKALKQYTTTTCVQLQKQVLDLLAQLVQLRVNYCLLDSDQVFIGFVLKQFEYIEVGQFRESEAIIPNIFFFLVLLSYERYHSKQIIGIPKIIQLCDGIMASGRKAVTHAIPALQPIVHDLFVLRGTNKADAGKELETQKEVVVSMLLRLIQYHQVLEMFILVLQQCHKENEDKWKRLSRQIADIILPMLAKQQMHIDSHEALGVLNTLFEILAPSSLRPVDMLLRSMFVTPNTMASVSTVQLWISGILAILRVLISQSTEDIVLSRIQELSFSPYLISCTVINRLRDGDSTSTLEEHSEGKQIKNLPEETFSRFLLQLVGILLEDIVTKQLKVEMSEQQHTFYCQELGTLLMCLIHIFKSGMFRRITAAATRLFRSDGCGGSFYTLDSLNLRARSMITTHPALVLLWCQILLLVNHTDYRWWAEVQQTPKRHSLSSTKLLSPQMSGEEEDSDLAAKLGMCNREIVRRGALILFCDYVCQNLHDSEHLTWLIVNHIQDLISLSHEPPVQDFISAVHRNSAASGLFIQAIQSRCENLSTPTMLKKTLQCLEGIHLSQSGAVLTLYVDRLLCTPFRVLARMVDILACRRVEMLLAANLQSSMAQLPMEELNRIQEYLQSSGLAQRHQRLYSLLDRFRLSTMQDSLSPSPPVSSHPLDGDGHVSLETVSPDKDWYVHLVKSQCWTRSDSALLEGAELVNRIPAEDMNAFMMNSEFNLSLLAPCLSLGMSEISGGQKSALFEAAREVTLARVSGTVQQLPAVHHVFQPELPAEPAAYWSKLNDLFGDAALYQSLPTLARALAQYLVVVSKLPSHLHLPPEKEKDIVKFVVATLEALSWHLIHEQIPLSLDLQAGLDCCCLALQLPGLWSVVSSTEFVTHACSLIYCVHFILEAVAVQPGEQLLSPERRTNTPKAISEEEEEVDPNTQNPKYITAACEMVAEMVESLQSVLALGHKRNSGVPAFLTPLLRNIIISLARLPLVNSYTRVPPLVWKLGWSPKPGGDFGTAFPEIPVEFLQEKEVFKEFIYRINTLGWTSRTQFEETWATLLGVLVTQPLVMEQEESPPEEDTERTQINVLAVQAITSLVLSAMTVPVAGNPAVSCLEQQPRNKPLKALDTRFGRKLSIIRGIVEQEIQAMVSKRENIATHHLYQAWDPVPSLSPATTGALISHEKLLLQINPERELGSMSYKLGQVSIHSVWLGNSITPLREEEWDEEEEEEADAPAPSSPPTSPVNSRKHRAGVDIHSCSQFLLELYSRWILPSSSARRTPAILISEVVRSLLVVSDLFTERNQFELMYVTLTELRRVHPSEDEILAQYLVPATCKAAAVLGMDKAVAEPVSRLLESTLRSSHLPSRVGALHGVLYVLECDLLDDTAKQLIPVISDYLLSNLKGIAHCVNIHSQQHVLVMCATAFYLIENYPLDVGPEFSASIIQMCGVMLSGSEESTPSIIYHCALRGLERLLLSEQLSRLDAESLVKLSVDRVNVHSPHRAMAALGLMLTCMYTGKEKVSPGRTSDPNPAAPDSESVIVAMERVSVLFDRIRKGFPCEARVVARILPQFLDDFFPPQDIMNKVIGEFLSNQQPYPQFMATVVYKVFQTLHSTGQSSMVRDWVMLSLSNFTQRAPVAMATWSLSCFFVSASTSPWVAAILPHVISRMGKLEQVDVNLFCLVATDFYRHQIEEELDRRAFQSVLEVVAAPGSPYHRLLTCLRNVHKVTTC
Assay: Q46 Radioligand Binding Assay (RBA), displacement of [3H3]MK-3328
Conditions: 5 μM Q46 protein aggregates, 10 nM ligand [3H3]MK-3328, 60 minutes at 37° C.
Description: Q46 Radioligand Binding Assay
For radioligand binding assays (RBA) GST-Q46 protein was generated based on a previous publication (Scherzinger et al. Cell, Vol. 90, 549-558, Aug. 8, 1997). For experiments 33 μM GST-Q46 was incubated with 150 μg/ml thrombin in assay buffer (150 mM NaCl, 50 mM Tris pH 8.0) and 2 mM CaCl2 for 16 hr at 37° C. Aggregated Q46 was pelleted by centrifugation for 5 min at 13,000 rpm in a bench top centrifuge and re-dissolved in the same volume of assay buffer. Test compounds were prepared by titration in DMSO at 11 concentrations from 33 μM to 1 nM. For the RBA, Q46 protein aggregates and test compounds were pre-incubated in assay buffer for 20 min at room temperature, in 140 μL/well in a 96-well plate (pp, round bottom). Then, ligand was added in 10 μL/well and incubated for 60 minutes at 37° C. Final assay concentrations were […] test compound, 5 μM Q46 protein (equivalent monomer concentration) and 10 nM ligand [^3H3]MK-3328 (Harrision et al., ACS Med Chem. Lett., 2 (2011), pp 498-502). Samples were transferred onto GF/B filter plates and washed 2× with 200 μL PBS using a Filtermate Harvester. After drying filter plates for 1 hour at 37° C., the back of the plates was sealed with foil and 30 μL/well scintillation fluid (Packard MicroScint 40) was added, incubated for 15 min in the dark and counted in a TopCount reader. For analysis, replicate data from independent assay plates were normalized towards 0% and 100% inhibition using control wells of vehicle (0% inhibition) and 3 μM unlabelled MK-3328 (100% inhibition). IC50 values were determined with a sigmoidal inhibition model with four variables (top, bottom, slope, IC50) in a global fit using the normalized replicate data.
COc1ccc2c(c1)CN(c1ncncc1C#N)C2 [4-(5-methoxy-2,3-dihydro-1H-isoindol-2-yl)pyrimidine-5-carbonitrile] showed an IC50 of less than 100 nM.
COc1ccc2c(c1)CN(c1ncccc1C#N)C2 [2-(5-methoxy-2,3-dihydro-1H-isoindol-2-yl)pyridine-3-carbonitrile] gave an IC50 of less than 100 nM.
N#Cc1cnccc1N1Cc2ccc(OCc3ccc(O)cn3)cc2C1 [4-{5-[(5-hydroxypyridin-2-yl)methoxy]-2,3-dihydro-1H-isoindol-2-yl}pyridine-3-carbonitrile] gave an IC50 of less than 100 nM.
Work on COc1ccc2c(c1)CN(c1ccncc1C#N)C2 [4-(5-methoxy-2,3-dihydro-1H-isoindol-2-yl)pyridine-3-carbonitrile] yielded an IC50 of less than 100 nM.
N#Cc1cncnc1N1Cc2ccc(OCc3ccc(O)cn3)cc2C1 [4-{5-[(5-hydroxypyridin-2-yl)methoxy]-2,3-dihydro-1H-isoindol-2-yl}pyrimidine-5-carbonitrile] gave an IC50 of less than 100 nM.
Compound COc1cnc(COc2ccc3c(c2)CN(c2ccncc2)C3)cn1 [5-[(5-methoxypyrazin-2-yl)methoxy]-2-(pyridin-4-yl)-2,3-dihydro-1H-isoindole] has an IC50 of less than 100 nM.
In the case of COc1ccc(COc2ccc3c(c2)CN(c2ccncc2C#N)C3)nc1 [4-{5-[(5-methoxypyridin-2-yl)methoxy]-2,3-dihydro-1H-isoindol-2-yl}pyridine-3-carbonitrile], the IC50 is reported as less than 100 nM.
In the case of N#Cc1cncnc1N1Cc2ccc(OCc3ccccc3)cc2C1 [4-[5-(benzyloxy)-2,3-dihydro-1H-isoindol-2-yl]pyrimidine-5-carbonitrile], the IC50 is reported as less than 100 nM.
Compound N#Cc1cnccc1N1Cc2ccc(OCc3cncnc3)cc2C1 [4-[5-(pyrimidin-5-ylmethoxy)-2,3-dihydro-1H-isoindol-2-yl]pyridine-3-carbonitrile] has an IC50 of less than 100 nM.
With COc1ccc(COc2ccc3c(c2)CN(c2ncccc2C#N)C3)nc1 [2-{5-[(5-methoxypyridin-2-yl)methoxy]-2,3-dihydro-1H-isoindol-2-yl}pyridine-3-carbonitrile] the IC50 was less than 100 nM.
COc1ccc(COc2ccc3c(c2)CN(c2ccncc2)C3=O)nc1 [5-[(5-methoxypyridin-2-yl)methoxy]-2-(pyridin-4-yl)-2,3-dihydro-1H-isoindol-1-one] showed an IC50 of less than 100 nM.
N#Cc1cccnc1N1Cc2ccc(OCc3cncnc3)cc2C1 [2-[5-(pyrimidin-5-ylmethoxy)-2,3-dihydro-1H-isoindol-2-yl]pyridine-3-carbonitrile] gave an IC50 of less than 100 nM.
COc1ccc(COc2ccc3c(c2)CN(c2ncncc2C#N)C3)nc1 [4-{5-[(5-methoxypyridin-2-yl)methoxy]-2,3-dihydro-1H-isoindol-2-yl}pyrimidine-5-carbonitrile] showed an IC50 of less than 100 nM.
Compound COc1ccc(COc2ccc3c(c2)CN(c2ccc(=O)n(C)n2)C3)nc1 [6-{5-[(5-methoxypyridin-2-yl)methoxy]-2,3-dihydro-1H-isoindol-2-yl}-2-methyl-2,3-dihydropyridazin-3-one] has an IC50 of less than 100 nM.

System: recombinant tau and amyloid β1-42 (Aβ1-42) aggregates
Assay: not given
Conditions: higher affinity for the tau aggregates than Aβ1-42 aggregates; cited from earlier work
In the case of CN(C)c1ccc(/C=C/c2nc3ccc(I)cc3[nH]2)cc1 [SBIM-3, 4-[(E)-2-(6-iodo-1H-benzimidazol-2-yl)ethenyl]-N,N-di methyl aniline], the “ratio of Kd values (affinity for tau aggregates versus Aβ1-42 aggregates)” value is listed as 2.73.

System: NFT in sections of AD brain tissue
Assay: not given
Conditions: in vitro autoradiography ([125I]SBIM-3) and fluorescent staining (SBIM-3); cited from earlier work
In the case of CN(C)c1ccc(/C=C/c2nc3ccc(I)cc3[nH]2)cc1 [SBIM-3, 4-[(E)-2-(6-iodo-1H-benzimidazol-2-yl)ethenyl]-N,N-di methyl aniline], the “binding to NFT in sections of AD brain tissue” value is given as “bound NFT in sections of AD brain tissue”.
